Results: patent US10919890B2, “Salts and pharmaceutical compositions thereof for the treatment of inflammatory disorders” (GALAPAGOS NV, priority 2014, dated 2021)
Counter-ions that a name gives are not always drawn.

Key:
[1] = Dissolution in solvents (salt Protocol 1); format: physicochemical; conditions: DCM, up to 20 relative volumes, agitated at 50° C.
Source text: The solvent is selected from isopropanol, ethanol, methanol, isopropyl acetate, THF, TBME, acetone, methyl ethyl ketone, DCM, and MeCN.

[2] = Complementary salt analysis (stability, hygroscopicity); format: physicochemical; conditions: for Hygroscopicity: salt from Protocol 4; for Salt stability: stability evaluation 1 week at 40° C./75% Relative humidity
[3] = Dog bioavailability study; set-up: species or system beagle dogs; conditions: in vivo, po, 25 mg/kg
Description: The dogs are not fasted before dosing, and have free access to water. Every day of the treatment, a half food ration is provided after the T0 blood sampling, 8 to 17 min before treatment, and the second half ration is given just after dosing or 1 h after treatment for period 2. A 3 days washout period is ensured between treatments. […] The capsule composition is described in Table XX below. The capsules are administered orally with water (5-10 mL), to provide good oesophageal transit. Each animal is checked at least once daily. Blood is collected from the jugular vein into lithium heparinised tubes at T0 (before food administration) and then at 1 […], and 24 h post treatment. Plasma is then obtained from blood by centrifugation (2500 g for 10 min at 4° C.), and stored at -20° C. until analysis. […] After vortex mixing and centrifugation at 4° C., the supernatants are diluted with a 0.5 volume of HPLC grade water in a midi-eppendorf 96-well plate. The plate is sealed and shaken to ensure sample homogeneity prior to analysis. […] Pharmacokinetic analysis is performed using WinNonlinTM software version 5.3, using concentrations from individual animals. Non-compartmental analysis is applied to determine the PK parameters (Cmax, Tmax, AUC0-last, t1/2, etc. . . . ) Concentrations below the limit of detection are set to zero for descriptive statistics and PK parameter calculations.

Row | Structure (SMILES) | Hygroscopicity [2] | Salt stability [2] | other results
1 | O=C(Nc1nc2cccc(-c3ccc(CN4CCS(=O)(=O)CC4)cc3)n2n1)C1CC1 [Compound 1, cyclopropane carboxylic acid {5-[4-(1,1-dioxo-thiomorpholin-4-ylmethyl)-phenyl]-[1,2,4]triazolo[1,5-a]pyridin-2-yl}-amide] |  |  | Dissolution in solvent [1]: almost full dissolution
2 | O=C(O)/C=C\C(=O)O [Compound 1 maleic acid salt] | non-hygroscopic |  | 
3 | O=C(Nc1nc2cccc(-c3ccc(CN4CCS(=O)(=O)CC4)cc3)n2n1)C1CC1.O=C(O)/C=C\C(=O)O [Compound 1 maleic acid salt] |  | stable | 
4 | Cl.O.O.O.O=C(Nc1nc2cccc(-c3ccc(CN4CCS(=O)(=O)CC4)cc3)n2n1)C1CC1 [Compound 1.HCl.3H2O] |  |  | Tmax [3]: 2.0 h
5 | Cl.O=C(Nc1nc2cccc(-c3ccc(CN4CCS(=O)(=O)CC4)cc3)n2n1)C1CC1 [Compound 1 HCl salt] | non-hygroscopic | stable | 
